What was measured:
[1] = biological target: T1, Neutrophil elastase (Homo sapiens, UniProt P08246); test: Inhibitory concentration against Human Leukocyte Elastase from human sputum
T1 sequence (P08246 whole entry): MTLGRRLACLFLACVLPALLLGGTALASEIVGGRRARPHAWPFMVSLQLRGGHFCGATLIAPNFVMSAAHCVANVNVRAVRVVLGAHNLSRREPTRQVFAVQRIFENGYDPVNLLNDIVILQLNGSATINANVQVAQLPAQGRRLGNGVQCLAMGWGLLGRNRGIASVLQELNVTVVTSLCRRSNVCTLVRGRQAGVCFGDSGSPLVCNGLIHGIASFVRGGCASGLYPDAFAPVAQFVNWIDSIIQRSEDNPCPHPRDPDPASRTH

[2] = biological target: T2, Neutrophil elastase (Homo sapiens) (UniProt P08246); test: Percentage inhibition of HLE induced hemorrhage in the hamster lung at 3 hours; format: functional; parameters: concentration or dose not given beside the values; details: concentration not given here
T2 sequence (whole entry): T1 sequence (P08246 whole entry)

[3] = species: Rattus norvegicus; test: Inhibitory concentration against ferric ascorbate-induced lipid peroxidation from rat liver microsomal preparation; format: functional
[4] = species: Rattus norvegicus
[5] = biological target: T3, Interstitial collagenase (Homo sapiens, UniProt P03956); test: The concentration required to achieve 50% inhibition against Matrix metalloprotease-1
T3 sequence (P03956 whole entry): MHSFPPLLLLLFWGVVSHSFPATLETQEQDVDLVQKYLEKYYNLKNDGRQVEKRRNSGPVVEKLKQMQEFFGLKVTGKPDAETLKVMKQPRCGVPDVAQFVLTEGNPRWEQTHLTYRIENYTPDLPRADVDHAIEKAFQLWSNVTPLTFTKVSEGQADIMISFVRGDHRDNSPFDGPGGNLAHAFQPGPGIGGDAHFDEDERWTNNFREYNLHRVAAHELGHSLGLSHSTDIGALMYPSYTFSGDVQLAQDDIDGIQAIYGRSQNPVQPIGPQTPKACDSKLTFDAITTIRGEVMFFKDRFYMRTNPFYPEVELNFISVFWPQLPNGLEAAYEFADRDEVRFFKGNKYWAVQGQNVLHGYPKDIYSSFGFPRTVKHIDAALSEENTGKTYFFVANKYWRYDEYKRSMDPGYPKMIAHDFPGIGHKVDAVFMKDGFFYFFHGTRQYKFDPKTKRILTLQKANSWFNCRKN

[6] = biological target: T4, Prolyl endopeptidase (Homo sapiens, UniProt P48147); test: The concentration required to achieve 50% inhibition against prolyl endopeptidase
T4 sequence (P48147 whole entry): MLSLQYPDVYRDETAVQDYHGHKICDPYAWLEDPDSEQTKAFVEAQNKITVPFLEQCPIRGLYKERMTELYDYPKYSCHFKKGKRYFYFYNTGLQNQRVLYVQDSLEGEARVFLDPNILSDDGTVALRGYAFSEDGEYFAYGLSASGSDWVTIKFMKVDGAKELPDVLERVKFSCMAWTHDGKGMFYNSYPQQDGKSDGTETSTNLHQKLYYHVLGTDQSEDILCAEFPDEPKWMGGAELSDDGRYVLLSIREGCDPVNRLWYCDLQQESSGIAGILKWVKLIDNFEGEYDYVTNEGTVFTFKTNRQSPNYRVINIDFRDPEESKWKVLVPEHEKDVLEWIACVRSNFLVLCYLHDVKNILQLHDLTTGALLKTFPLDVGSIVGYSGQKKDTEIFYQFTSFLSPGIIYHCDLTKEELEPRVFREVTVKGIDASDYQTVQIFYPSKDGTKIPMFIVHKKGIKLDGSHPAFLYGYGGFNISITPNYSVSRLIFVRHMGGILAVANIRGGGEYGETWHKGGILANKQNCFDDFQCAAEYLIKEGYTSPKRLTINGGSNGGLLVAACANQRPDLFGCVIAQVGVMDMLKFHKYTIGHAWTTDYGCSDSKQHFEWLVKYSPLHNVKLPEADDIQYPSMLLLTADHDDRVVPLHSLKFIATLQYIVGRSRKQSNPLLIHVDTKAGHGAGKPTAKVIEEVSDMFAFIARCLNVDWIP

[7] = biological target: Stromelysin-1 (Homo sapiens, UniProt P08254); test: The concentration required to achieve 50% inhibition against Matrix metalloprotease-3
[8] = biological target: 72 kDa type IV collagenase (Homo sapiens, UniProt P08253); test: The concentration required to achieve 50% inhibition against Matrix metalloprotease-2
[9] = biological target: Matrix metalloproteinase-9 (Homo sapiens, UniProt P14780); test: The concentration required to achieve 50% inhibition against Matrix metalloprotease-9
[10] = biological target: T2, Neutrophil elastase (Homo sapiens); test: Percentage inhibition of HLE induced hemorrhage in the hamster lung at 6 hours; format: functional, tissue-based; details: concentration not given here
[11] = biological target: T2, Neutrophil elastase (Homo sapiens); test: Percentage inhibition of HLE induced hemorrhage in the hamster lung at 18 hours; format: functional, tissue-based; details: concentration not given here
[12] = biological target: T2, Neutrophil elastase (Homo sapiens); test: Percentage inhibition of HLE induced hemorrhage in the hamster lung at 24 hours; format: functional, tissue-based; details: concentration not given here
[13] = biological target: T2, Neutrophil elastase (Homo sapiens); test: Percentage inhibition of HLE induced hemorrhage in the hamster lung at 48 hours; format: functional, tissue-based; details: concentration not given here

Matrix metalloproteinase-9, sequence (P14780 whole entry): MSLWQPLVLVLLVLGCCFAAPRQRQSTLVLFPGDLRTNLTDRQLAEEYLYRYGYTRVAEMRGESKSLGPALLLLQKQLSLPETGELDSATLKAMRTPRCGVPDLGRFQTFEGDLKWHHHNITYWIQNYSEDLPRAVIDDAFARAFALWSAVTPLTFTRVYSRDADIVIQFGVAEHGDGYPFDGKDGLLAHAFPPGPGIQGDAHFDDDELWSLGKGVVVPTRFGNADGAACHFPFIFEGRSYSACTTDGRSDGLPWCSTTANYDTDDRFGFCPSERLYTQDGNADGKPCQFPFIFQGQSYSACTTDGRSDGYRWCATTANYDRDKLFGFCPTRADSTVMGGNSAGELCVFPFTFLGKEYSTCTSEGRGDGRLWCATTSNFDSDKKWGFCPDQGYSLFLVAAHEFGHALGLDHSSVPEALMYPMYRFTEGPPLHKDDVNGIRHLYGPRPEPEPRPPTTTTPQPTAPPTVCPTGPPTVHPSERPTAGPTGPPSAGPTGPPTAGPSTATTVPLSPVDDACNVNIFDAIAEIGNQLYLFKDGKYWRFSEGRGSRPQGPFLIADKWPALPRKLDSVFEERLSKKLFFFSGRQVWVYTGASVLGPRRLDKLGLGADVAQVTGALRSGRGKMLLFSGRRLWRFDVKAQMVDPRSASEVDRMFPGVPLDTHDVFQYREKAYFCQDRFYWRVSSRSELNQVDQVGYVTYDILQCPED
72 kDa type IV collagenase, sequence (P08253 whole entry): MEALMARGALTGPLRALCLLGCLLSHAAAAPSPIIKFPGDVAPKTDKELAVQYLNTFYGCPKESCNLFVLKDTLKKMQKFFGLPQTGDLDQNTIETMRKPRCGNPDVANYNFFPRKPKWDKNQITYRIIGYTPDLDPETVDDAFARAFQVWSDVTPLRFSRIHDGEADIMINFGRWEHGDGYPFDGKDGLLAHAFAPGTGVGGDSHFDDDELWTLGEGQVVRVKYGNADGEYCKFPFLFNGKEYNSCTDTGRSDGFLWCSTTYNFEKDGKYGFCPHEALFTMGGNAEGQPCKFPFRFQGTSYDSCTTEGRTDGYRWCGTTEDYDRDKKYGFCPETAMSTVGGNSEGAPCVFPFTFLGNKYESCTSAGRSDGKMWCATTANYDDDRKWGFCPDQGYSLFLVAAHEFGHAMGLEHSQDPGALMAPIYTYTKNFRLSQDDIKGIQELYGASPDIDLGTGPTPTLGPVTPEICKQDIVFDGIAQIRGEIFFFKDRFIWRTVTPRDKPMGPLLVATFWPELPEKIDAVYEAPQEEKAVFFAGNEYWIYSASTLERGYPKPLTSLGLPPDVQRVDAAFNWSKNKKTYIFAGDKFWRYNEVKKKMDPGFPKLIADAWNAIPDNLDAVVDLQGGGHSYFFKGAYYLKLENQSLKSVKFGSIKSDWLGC
Stromelysin-1, sequence (P08254 whole entry): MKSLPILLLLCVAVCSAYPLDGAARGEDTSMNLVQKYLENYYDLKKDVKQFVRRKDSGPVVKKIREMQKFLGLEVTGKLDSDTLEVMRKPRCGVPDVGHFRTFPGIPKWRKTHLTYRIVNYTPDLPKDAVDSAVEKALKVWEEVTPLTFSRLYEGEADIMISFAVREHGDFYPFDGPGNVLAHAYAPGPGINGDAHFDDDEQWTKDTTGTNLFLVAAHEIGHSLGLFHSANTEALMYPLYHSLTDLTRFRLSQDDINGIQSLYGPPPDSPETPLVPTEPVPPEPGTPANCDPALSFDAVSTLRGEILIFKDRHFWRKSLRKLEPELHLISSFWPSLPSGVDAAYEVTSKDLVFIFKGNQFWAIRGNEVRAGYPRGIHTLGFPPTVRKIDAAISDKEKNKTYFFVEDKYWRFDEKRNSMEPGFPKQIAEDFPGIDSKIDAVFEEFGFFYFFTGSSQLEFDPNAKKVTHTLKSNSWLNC

SMILES | IC50 [1] [nM] | inhibition [2] [%] | IC50 [3] [nM] | IC50 [4] | other results
CC(C)C(NC(=O)[C@@H]1CC2CCCCC2N1C(=O)[C@@H](CCCCNC(=O)CCCSc1cc(C(C)(C)C)c(O)c(C(C)(C)C)c1)NC(=O)c1ccc(C(=O)NS(=O)(=O)c2ccc(Cl)cc2)cc1)C(=O)C(F)(F)F (stereo not given in full) | 84 | 3 | 2500 | – | –
CC(C)C(NC(=O)c1ccc(C(=O)NS(=O)(=O)c2ccc(Cl)cc2)cc1)C(=O)N1C2CCC(CC2)[C@@H]1C(=O)NC(C(=O)C(F)(F)F)C(C)C (stereo not given in full) | 15 | – | – | Not Active | –
CC(C)[C@H](NC(=O)OC(C)(C)C)C(=O)N1C2CCC(CC2)[C@@H]1C(=O)N[C@H](C(=O)C(F)(F)F)C(C)C | 32 | – | – | – | –
CC(C)C(NC(=O)c1ccc(S(=O)(=O)NC(=O)c2ccc(Cl)c(S(=O)(=O)NC(=O)CSc3cc(C(C)(C)C)c(O)c(C(C)(C)C)c3)c2)cc1)C(=O)N1[C@@H](C(=O)NC(C(=O)C(F)(F)F)C(C)C)C[C@H]2CCCC[C@H]21 (stereo not given in full) | – | – | – | – | IC50 [5]: 58000 nM; IC50 [6]: 2000 nM; IC50 [7]: 38000 nM; IC50 [8]: 19000 nM; IC50 [9]: 24000 nM
CC(C)C(NC(=O)c1ccc(S(=O)(=O)NC(=O)Cc2cc(C(C)(C)C)c(O)c(C(C)(C)C)c2)cc1)C(=O)N1[C@@H](C(=O)NC(C(=O)C(F)(F)F)C(C)C)C[C@H]2CCCC[C@H]21 (stereo not given in full) | 38 | 66 | 5000 | – | inhibition [10]: 65%; inhibition [11]: 26%; inhibition [12]: 3%
CC(C)C(NC(=O)c1ccc(S(=O)(=O)NC(=O)c2cc(C(C)(C)C)c(OC(=O)c3cc(C(C)(C)C)c(O)c(C(C)(C)C)c3)c(C(C)(C)C)c2)cc1)C(=O)N1[C@@H](C(=O)NC(C(=O)C(F)(F)F)C(C)C)C[C@H]2CCCC[C@H]21 (stereo not given in full) | 46 | 0 | – | Not Active | –
CCOCOc1c(C(C)(C)C)cc(/C=C/C(=O)NS(=O)(=O)c2ccc(C(=O)NC(C(=O)N3[C@@H](C(=O)NC(C(=O)C(F)(F)F)C(C)C)C[C@H]4CCCC[C@H]43)C(C)C)cc2)cc1C(C)(C)C (stereo not given in full) | 36 | 19 | – | Not Active | –
CC(C)C(NC(=O)[C@@H]1CC2CCCCC2N1C(=O)[C@@H](CCCCNC(=O)Cc1cc(C(C)(C)C)c(O)c(C(C)(C)C)c1)NC(=O)c1ccc(C(=O)NS(=O)(=O)c2ccc(Cl)cc2)cc1)C(=O)C(F)(F)F (stereo not given in full) | 70 | 40 | 2500 | – | inhibition [10]: 41%; inhibition [11]: 45%; inhibition [13]: 0%; inhibition [12]: 14%

From ChEMBL document CHEMBL1130065, “Dual inhibition of human leukocyte elastase and lipid peroxidation: in vitro and in vivo activities of azabicyclo[2.2.2]octane and perhydroindole derivatives” (J Med Chem, 1997)
